Measurements reported in patent publication US8455620B2, “Cloning and expression of a novel phytase” (Feed Research Institute Chinese Academy of Agricultural …, priority 2006, dated 2013).
“Also recorded” adds a separate entry of the source. Where two headings read alike, the source gives them in different places.

How the values were obtained:
r-AppA = type: biochemical, Yersinia intermedia; conditions: 1 mM, pH 4.5
pH stability of r-AppA = type: physicochemical; conditions: 37° C.
Method: (§1) The r-AppA purified through Sephacryl S-200 was investigated an enzyme activity of phytase, according to temperature and pH. The effect of pH on phytase activity was determined using the following buffer solutions: glycine-HCl, pH 1.5-3.5; Na acetate-acetic acid, pH 3.5-6.0; Tris-HCl, pH 6.0-8.5, and glycine-NaOH, pH 8.5-10. All buffers used for dilution contained 0.05% BSA and 0.05% Triton. As is shown in FIG. 2, the enzyme activity varied with pH. […] 70% of the enzyme activity was still maintained at pH 2.5, and 65% of the enzyme activity was still maintained at pH 5.5. […] And over 70% activity still remained at pH 1.0-2.0.

trypsin = assay: Protease resistance of r-AppA, incubation with trypsin; type: biochemical; conditions: 0.025 mg/ml phytase, 0.1 mg/ml trypsin, 37° C., 5 min to 2 h
Method: (§2) To determine the protease resistance, the purified phytase (0.025 mg/ml) was incubated with 0.1 mg/ml of pepsin and trypsin at 37° C. And then, sample incubated was collected respectively at 5 min, 10 min, 20 min, 30 min, 1 h, and 2 hs.

[1] = Heat stability of r-AppA at 80° C.; type: physicochemical
Method: (§3) As is shown in FIG. 3A, the enzyme activity varied with temperature. The temperature optima were determined at the pH optimum (pH 4.5) ranging the temperature values from 20 to 80° C. […] As is shown in FIG. 3B, when the enzyme was left at 80° C. for 10 minutes, over 50% of the activity was remained, and 40% of the activity was remained, at 80° C. for 1 hour. Compared to AppA from E. coli, which was widely used in feed industry as a feed additive, the r-AppA are higher stability at higher temperatures.

[2] = Enzyme activity of r-AppA according to temperature and pH; type: biochemical
Method: (§4) A total of 72 transformants were analyzed for phytase activity by ferrous sulfate-molybdenum blue method. 950 μl of substrate solution (4 mM sodium phytase in 0.25M sodium acetate buffer, pH5.0) was added to 50 μl diluted enzyme solution, which was reacted at 37° C. for 30 minutes. Then, 1 mL of 10% TCA (trichloroacetic acid) solution was added to stop the reaction. As a control, TCA solution was added into the enzyme solution to inactivate the enzyme and then substrate solution was added. After the reaction has terminated, 2 mL of reagent C (0.576M acid sulfate, 1% ammonium molybdate, 7.32% Ferrous sulfate.7H2O) was added, and left for 10 minutes. The intensity of the blue color was measured at 700 nm, and activities in enzyme solution and in a control were measured. 1 unit of phytase activity was determined to be the enzyme amount releasing 1 μmol of phosphate for 1 minute. Two days after methanol induction, 11 transformants out of 72 produced phytase activity from 48 to 270 U/mL of medium. Obviously, the ORF obtained above, was a novel gene, which encoded a polypeptide with phytase activity. The polypeptide with phytase activity, which encoded by mature region of OFR, was named r-AppA.
as §1, §3

[3] = Specific activity of purified r-AppA, ferrous sulfate-molybdenum blue method; type: biochemical; conditions: r-AppA purified through Sephacryl S-200; pH 4.5; protein by Lowry method
Method: as §4, with “Two days after methanol induction, 11 transformants out of 72 produced phytase activity from 48 to 270 U/mL of medium. Obviously, the ORF obtained above, was a novel gene, which encoded a polypeptide with phytase activity. The polypeptide with phytase activity, which encoded by mature region of OFR, was named r-AppA.” left out
In order to determinate the specific activity, the concentration of the r-AppA purified through Sephacryl S-200 was determined by the Lowry method, and the enzyme activity of the r-AppA purified was determined by ferrous sulfate-molybdenum blue method at pH 4.5. As a result, the specific activity of r-AppA purified was 3960±248 U/mg, which is the highest specific activity, comparing to other phytases recorded previously.

pepsin = assay: Protease resistance of r-AppA, incubation with pepsin; type: biochemical; conditions: 0.025 mg/ml phytase, 0.1 mg/ml pepsin, 37° C., 5 min to 2 h
Method: as §2

**Q.** Which “Enzyme activity of r-AppA (control = 100)” value (r-AppA) does the source give for `[Zn+2]` [Zn] here?
**A.** 44

**Q.** What about the “effect on enzyme activity of r-AppA, in words” value (from here on “effect on enzyme activity”) (r-AppA; listed as Zn^2+) of the same molecule?
**A.** obviously inhibited; also recorded: strongly inhibited

**Q.** For `[Co+2]` [Co], which “Enzyme activity of r-AppA (control = 100)” value (r-AppA) is on record?
**A.** 93

**Q.** Which “Enzyme activity of r-AppA (control = 100)” value (r-AppA) does the source give for `[Fe+2]` [Fe] here?
**A.** 47

**Q.** What about the “effect on enzyme activity” value (r-AppA; listed as Fe^2+) of the same molecule?
**A.** obviously inhibited; also recorded: strongly inhibited

**Q.** With “r-AppA: polypeptide with phytase activity encoded by mature region of the ORF from Yersinia intermedia H-27, expressed in Pichia pastoris (SEQ ID NO: 3)” as the molecule, how does the “activity remained (pH stability)” value (pH stability of r-AppA; pH 1.0-2.0, 2 hours) read?
**A.** over 70%

**Q.** What about the “activity remained (pH stability)” value (pH stability of r-AppA; pH 2.5-10, 2 hours) of the same molecule?
**A.** over 85%

**Q.** What about the “phytase activity after incubation with trypsin” value (trypsin) of the same molecule?
**A.** not significantly changed

**Q.** And the “phytase activity after incubation with trypsin” value (trypsin; listed as phytase)?
**A.** strong resistance

**Q.** What about the “activity remained (heat stability)” value ([1]; 80° C. for 10 minutes) of the same molecule?
**A.** over 50%

**Q.** What about the “activity remained (heat stability)” value ([1]; 80° C. for 1 hour) of the same molecule?
**A.** 40%

**Q.** What about the “enzyme activity maintained (relative to maximum)” value ([2]; at pH 2.5) of the same molecule?
**A.** 70%

**Q.** And the “temperature of highest activity (optimal temperature)” value ([2]; at pH 4.5, 20 to 80° C.)?
**A.** 55 °C

**Q.** What about the “enzyme activity maintained (relative to maximum)” value ([2]; at pH 5.5) of the same molecule?
**A.** 65%

**Q.** And the “pH of highest activity (optimal pH)” value ([2]; buffers pH 1.5-10)?
**A.** 4.5

**Q.** And the specific activity [3]?
**A.** 3960±248 U/mg

**Q.** And the “phytase activity after incubation with pepsin” value (pepsin)?
**A.** not significantly changed

**Q.** And the “phytase activity after incubation with pepsin” value (pepsin; listed as phytase)?
**A.** strong resistance

**Q.** What does the source list for `[Mn+2]` [Mn]?
**A.** Enzyme activity of r-AppA (control = 100) (r-AppA): 104; effect on enzyme activity of r-AppA, in words (r-AppA): weakly enhanced

**Q.** Which “Enzyme activity of r-AppA (control = 100)” value (r-AppA) does the source give for `[Ni+2]` [Ni] here?
**A.** 98

**Q.** For `[Na+]` [Na], which “Enzyme activity of r-AppA (control = 100)” value (r-AppA) is on record?
**A.** 95

**Q.** What does the source list for `O=C(O)CN(CCN(CC(=O)O)CC(=O)O)CC(=O)O` [EDTA]?
**A.** Enzyme activity of r-AppA (control = 100) (r-AppA): 101; effect on enzyme activity of r-AppA, in words (r-AppA): not significantly changed

**Q.** For `CCCCCCCCCCCCOS(=O)(=O)[O-].[Na+]` [SDS], which “Enzyme activity of r-AppA (control = 100)” value (r-AppA) is on record?
**A.** 9

**Q.** And the “effect on enzyme activity” value (r-AppA)?
**A.** almost lost

**Q.** With `[Li+]` [Li] as the molecule, how does the “Enzyme activity of r-AppA (control = 100)” value (r-AppA) read?
**A.** 95

**Q.** For `[Ag+]` [Ag], which “Enzyme activity of r-AppA (control = 100)” value (r-AppA) is on record?
**A.** 84

**Q.** Which “Enzyme activity of r-AppA (control = 100)” value (r-AppA) does the source give for `[Cu+2]` [Cu] here?
**A.** 61

**Q.** And the “effect on enzyme activity” value (r-AppA; listed as Cu^2+)?
**A.** obviously inhibited; also recorded: strongly inhibited

**Q.** For `[K+]` [K], which “Enzyme activity of r-AppA (control = 100)” value (r-AppA) is on record?
**A.** 99

**Q.** Which “Enzyme activity of r-AppA (control = 100)” value (r-AppA) does the source give for `[Ca+2]` [Ca] here?
**A.** 98

**Q.** For `[Mg+2]` [Mg], which “Enzyme activity of r-AppA (control = 100)” value (r-AppA) is on record?
**A.** 94
